Patent publication US4742155A, “Plipastatin and method for preparation thereof” (Zaidan Hojin Biseibutsu Kagaku Kenkyu Kai, priority 1984, dated 1988)
Entries after “also recorded” stand apart in the source; their conditions may differ. Bridge positions count the residues as written; N and C are the ends. Square brackets hold non-standard residues; d marks the D form. Peptide text beside a SMILES is read from it. * marks the point of attachment. Hexadecanoyl(3R-OH) = CCCCCCCCCCCCC[C@@H](O)CC(=O)*; d(aThr) = C[C@@H](O)[C@@H](N)C(=O)O; dOrn = NCCC[C@@H](N)C(=O)O

Key:
[1] = test system: PCA (Passive Cutaneous Anaphylaxis) reactions in rats of the S-D strain; assay: PCA (Passive Cutaneous Anaphylaxis) reaction, Evans blue patch; format: in vivo; details: for Development of blue patch +, number of animals in a group of five / Development of blue patch -, number of animals in a group of five / Development of blue patch ±, number of animals in a group of five: 150 μl intradermal 5 min before challenge
Experimental: The experiment described below was accomplished in accordance with conventional methods. (Reference: J. Immunology, 106, 1002-1011, 1971). Rats were sensitized with egg albumin antigen to obtain an anti-serum. The rats of the S-D strain (male, 8 wk of age) were passively sensitized by intradermal injection of 50 μl of the thus obtained anti-egg albumin serum on their backs. Forty-eight hours later, each rat was challenged by the intravenous injection of physiological saline containing egg albumin (2.5 mg) plus Evans blue (2.5 mg). Sixty minutes after the injection, any development of blue dye patch due to the extravasation of Evans blue at the sensitized site was checked. Five minutes before the challenge, the test compound (150 μl) was intradermally injected at the sensitized site. DSCG (disodium cromoglycate) was used as a control.

phospholipase A2 = target: phospholipase A2
Experimental: (§1) The measurement of the antiphospholipase D activity is carried out by the method of Okuyama et al. described in A. Okuyama, T. Nishikiori, T. Aoyagi and H. Umezawa, Biochemistry international, 4, 417, 1982. Dipalmitoylphosphatidyl choline (DPC) (200 mM) and cholin-methyl-^14 C-DPC (4×10^4 dpm) are suspended ultrasonically in 390 μl of 50 mM tris-hydrochloric acid buffer (pH 5.7) containing 1 mM calcium chloride. To the resulting suspension is added 10 μl of a solution containing the sample to be tested. To the resulting mixture is added 100 μl of a solution of commercially available phospholipase D (derived from cabbage) and reacted at 37° C. for 20 minutes. The reaction is quenched by addition of 1.5 ml of a mixture of chloroform, methanol and conc. hydrochloric acid (2:1:0.02 v/v). To this mixture is then added 1 ml of 50% methanol containing […] potassium chloride and the mixture is stirred. Two layers are separated by centrifugation. The radioactivity (a) of choline liberated from the upper layer by the enzyme is measured. Also, the radioactivity (b) of the buffer free from the sample is measured as a blank test. The percentage inhibition of phospholipase activity is calculated according to the following formula: [(b-a)/b]×100.
(§2) IC50 values correspond to the concentration of the samples giving a 50% inhibition.
(§3) The measurement of the inhibition of phospholipase was accomplished by the method of Okuyama et al. set forth above.

phospholipase C = target: phospholipase C
Experimental: as §1, §2, §3

[2] = target: phospholipase D (derived from cabbage); assay: Inhibition of phospholipase D (antiphospholipase D activity, 14C-DPC); format: biochemical; details: Table 2
Excerpt: The monitoring of the production of Plipastatin through the cultivation and purification steps is accomplished by measuring the antiphospholipase D activity in accordance with the following method.
Two layers are separated by centrifugation.

[3] = test system: delayed-type hypersensitivity (DTH) in CDF1 mice; assay: Cell-mediated immunity: delayed-type hypersensitivity (DTH) to SRBC, footpad swelling; format: in vivo; details: for Thickness of footpad: 24 h after secondary SRBC challenge, CDF1 mice; for Percentage with respect to the control: footpad swelling, control = 100%
Excerpt: This experiment illustrates the effects on the cell-mediated immunity in normal mice.
The activities of Plipastatin A1 and B1 on cell-mediated immunity were studied in terms of delayed-type hypersensitivity (DTH) caused by inoculating mice with antigenic sheep red blood cells (SRBC) in one footpad (Reference: J. Exp. Med., 139, 1529-1539, 1974).
CDF1 mice (female, 8 week of age) were inoculated intravenously with a suspension of 5×10^5 SRBC in physiological saline. At the same time, a single dose of an aqueous solution of 5 mg/Kg or 0.5 mg/Kg of Plipastatin A1 or B1 was administered intraperitoneally to the mice. Four days after the injection, the mice were subjected to the secondary challenge by subcutaneous injection of the other footpad with a suspension of 10^8 SRBC in physiological saline. Twenty-four hours later, the degree of footpad swelling (increasing in the thickness of the footpad) was measured with a caliper. The cell-mediated immunity suppressive effects of the test compounds were determined by comparing the degree of footpad swelling in the treated animals with the degree of footpad swelling (100%) in untreated, control animals that were subcutaneously injected in their footpads with an aqueous solution of SRBC in physiological saline in stead of the test compounds.

[4] = test system: Con A-stimulated T-lymphocytes; assay: Reaction of T-lymphocyte blastogenesis, [3H]-thymidine uptake; format: cell-based, BALB/c mice; details: 100 μg/ml (given for Plipastatin A1; not given for B1); 5 μg/ml Con A, 72 hours
Experimental: (§4) This experiment illustrates the suppressive effects of Plipastatin on the reaction of lymphocyte blastogenesis.
(§5) The reaction of lymphocyte blastogenesis was evaluated in terms of the incorporation of [^3 H]-thymidine in the DNA synthesis by both T-cells and B-cells stimulated with concanavalin A (hereunder referred to as Con A) and lipopolysaccharide of E. coli 055:B5. (Reference "Meneki Jikken Sosaho", or "Immunological Experiments Manual", pp. 2267-2276, The Japanese Society for Immunology).
(§6) In the reaction of T-lymphocyte blastogenesis, the T-cells were obtained by passing spleen cells of BALB/c mice (19 weeks old) through a nylon column to remove adsorptive cells and by then cultivating the resulting spleen cells in a plastic Petri dish for one hour to eliminate the remaining adsorptive cells. The cultivation of the T-cells was conducted in wells of a Falcon microtest plate using RPMI 1640 medium containing 20% fetal bovine serum, […] of Hepes, 100 μg/ml of streptomycin and 100 U/ml of penicillin G. The T-lymphocytes (1×10^5), 5 μg/ml of Con A and PLIPASTATIN A1 or B1 were added in that order to the wells and said medium was then added to the wells to make a total of 0.2 ml. The resulting mixture was incubated for 72 hours. The mixture was pulse-labeled with [^3 H]-thymidine at 8 hours before terminating the cultivation. […]

[5] = test system: LPS-stimulated B-lymphocytes; assay: Reaction of B-lymphocyte blastogenesis, [3H]-thymidine uptake; format: cell-based, BALB/c mice; details: 100 μg/ml (given for Plipastatin A1; not given for B1); 100 μg/ml LPS, 72 hours
Experimental: as §4, §5, §6

Solubility = format: physicochemical; details: potassium salts (Table 1)
Experimental: (All measurements were carried out using potassium salts of the compounds unless otherwise specified.)

[6] = mouse, in vivo, ip

Molecule: O=C([O-])c1cc(=O)c2c(OCC(O)COc3cccc4oc(C(=O)[O-])cc(=O)c34)cccc2o1.[Na+].[Na+] [DSCG, disodium cromoglycate, reference compound]
- Development of blue patch +, number of animals in a group of five ([1]; Conc. 59 μM): 0
- Development of blue patch -, number of animals in a group of five ([1]; Conc. 59 μM): 4
- Development of blue patch ±, number of animals in a group of five ([1]; Conc. 59 μM): 1
- Development of blue patch +, number of animals in a group of five ([1]; Conc. 590 μM): 0
- Development of blue patch -, number of animals in a group of five ([1]; Conc. 590 μM): 4
- Development of blue patch ±, number of animals in a group of five ([1]; Conc. 590 μM): 1

Molecule: CCCCCCCCCCCCC[C@@H](O)CC(=O)N[C@@H](CCC(=O)O)C(=O)N[C@H](CCCN)C(=O)N[C@H]1Cc2ccc(cc2)OC(=O)[C@H]([C@@H](C)CC)NC(=O)[C@@H](Cc2ccc(O)cc2)NC(=O)[C@H](CCC(N)=O)NC(=O)[C@@H]2CCCN2C(=O)[C@@H](C(C)C)NC(=O)[C@H](CCC(=O)O)NC(=O)[C@@H]([C@@H](C)O)NC1=O [Plipastatin B1] ({Hexadecanoyl(3R-OH)}-E[dOrn]Y[d(aThr)]E[dV]PQ[dY]I; ester 3-C)
- Degree of inhibition, IC50, phospholipase A2 (phospholipase A2): 5.2 µg/mL
- Degree of inhibition, IC50, phospholipase C (phospholipase C): 3.6 µg/mL
- Degree of inhibition, IC50, phospholipase D [2]: 2.8 µg/mL
- Thickness of footpad ([3]; dose 0.5 mg/Kg single i.p.): 97 ± 44 × 10^-2 mm
- Percentage with respect to the control ([3]; dose 0.5 mg/Kg single i.p.): 99%
- Thickness of footpad ([3]; dose 5 mg/Kg single i.p.): 57 ± 31 × 10^-2 mm
- Percentage with respect to the control ([3]; dose 5 mg/Kg single i.p.): 58%
- Suppression of uptake of [3H]-thymidine into Con A-stimulated T-lymphocytes [4]: 54%
- Suppression of uptake of [3H]-thymidine into LPS-stimulated B-lymphocytes [5]: 20%
- Solubility (Solubility): Soluble in water, methanol, ethanol, and dimethyl sulfoxide; also recorded: Insoluble in organic solvents such as acetone, ethyl acetate,
- LD50 [6]: 250 to 500 mg/kg

Molecule: Plipastatin A1
- Degree of inhibition, IC50, phospholipase A2 (phospholipase A2): 4.3 µg/mL
- Degree of inhibition, IC50, phospholipase C (phospholipase C): 1.9 µg/mL
- Degree of inhibition, IC50, phospholipase D [2]: 2.1 µg/mL
- Thickness of footpad ([3]; dose 0.5 mg/Kg single i.p.): 63 ± 25 × 10^-2 mm
- Percentage with respect to the control ([3]; dose 0.5 mg/Kg single i.p.): 64%
- Thickness of footpad ([3]; dose 5 mg/Kg single i.p.): 48 ± 16 × 10^-2 mm
- Percentage with respect to the control ([3]; dose 5 mg/Kg single i.p.): 49%
- Suppression of uptake of [3H]-thymidine into Con A-stimulated T-lymphocytes [4]: 52%
- Suppression of uptake of [3H]-thymidine into LPS-stimulated B-lymphocytes [5]: 15%
- Development of blue patch +, number of animals in a group of five ([1]; Conc. 5.9 μM): 2
- Development of blue patch -, number of animals in a group of five ([1]; Conc. 5.9 μM): 0
- Development of blue patch ±, number of animals in a group of five ([1]; Conc. 5.9 μM): 3
- Development of blue patch +, number of animals in a group of five ([1]; Conc. 59 μM): 0
- Development of blue patch -, number of animals in a group of five ([1]; Conc. 59 μM): 4
- Development of blue patch ±, number of animals in a group of five ([1]; Conc. 59 μM): 1
- Development of blue patch +, number of animals in a group of five ([1]; Conc. 590 μM): 0
- Development of blue patch -, number of animals in a group of five ([1]; Conc. 590 μM): 5
- Development of blue patch ±, number of animals in a group of five ([1]; Conc. 590 μM): 0
- Suppressive effects on PCA reactions ([1]; intradermal injections of 590 and 59 μM): comparable to those of DSCG
- Solubility (Solubility): Soluble in water, methanol, ethanol, and dimethyl sulfoxide; also recorded: Insoluble in organic solvents such as acetone, ethyl acetate,

Molecule: Plipastatin A2
- Degree of inhibition, IC50, phospholipase A2 (phospholipase A2): 3.4 µg/mL
- Degree of inhibition, IC50, phospholipase C (phospholipase C): 4.0 µg/mL
- Degree of inhibition, IC50, phospholipase D [2]: 3.8 µg/mL
- Solubility (Solubility): Soluble in water, methanol, ethanol, and dimethyl sulfoxide; also recorded: Insoluble in organic solvents such as acetone, ethyl acetate,

Molecule: Plipastatin B2
- Degree of inhibition, IC50, phospholipase A2 (phospholipase A2): 3.5 µg/mL
- Degree of inhibition, IC50, phospholipase C (phospholipase C): 4.5 µg/mL
- Degree of inhibition, IC50, phospholipase D [2]: 3.3 µg/mL
- Solubility (Solubility): Soluble in water, methanol, ethanol, and dimethyl sulfoxide; also recorded: Insoluble in organic solvents such as acetone, ethyl acetate,
